Data published in ChEMBL document CHEMBL5380807, “Imidazo[1,2-a]Pyridine Derivatives as Novel Dual-Target Inhibitors of ABCB1 and ABCG2 for Reversing Multidrug Resistance” (J Med Chem, 2023).
Active and inactive are the calls of the source. The calls are words filed in the database; no cut-off is given here.

Legend:
[1] = test system: K562; assay: Cytotoxicity against human K562 cells assessed as decrease in cell survival rate at 5 uM incubated for 72 hrs by MTS assay; type: toxicity, cell-based; settings: k562, 72 h
[2] = test system: K562; assay: Reversal of ABCB1 mediated adriamycin resistance in human K562 cells assessed as reduction in survival rate at 1 uM preincubated for 1 hrs followed by adriamycin addition and measured after 72 hrs by MTS assay; type: functional, cell-based; settings: time 73.0 hrs
[3] = test system: K562; assay: Reversal of ABCB1 mediated adriamycin resistance in human K562 cells assessed as reduction in survival rate at 5 uM preincubated for 1 hrs followed by adriamycin addition and measured after 72 hrs by MTS assay; type: functional, cell-based; settings: time 73.0 hrs
[4] = test system: K562/A02; assay: Reversal of ABCB1 mediated adriamycin resistance in human K562/A02 cells overexpressing ABCB1 assessed as reduction in survival rate at 5 uM preincubated for 1 hrs followed by adriamycin addition and measured after 72 hrs by MTS assay; type: functional
[5] = test system: K562/A02; assay: Cytotoxicity against human K562/A02 cells overexpressing ABCB1 assessed as decrease in cell survival rate at 5 uM incubated for 72 hrs by MTS assay; type: toxicity, cell-based; settings: k562/a02, 72 h
[6] = test system: K562/A02; assay: Reversal of ABCB1 mediated adriamycin resistance in human K562/A02 cells overexpressing ABCB1 assessed as reduction in survival rate at 1 uM preincubated for 1 hrs followed by adriamycin addition and measured after 72 hrs by MTS assay; type: functional
[7] = Cytotoxicity against human HEK293 cells assessed as reduction in cell viability incubated for 72 hrs by SRB assay; type: toxicity, cell-based
[8] = Cytotoxicity against human K562/A02 cells overexpressing ABCB1 assessed as decrease in cell survival rate incubated for 72 hrs by MTS assay; type: toxicity, cell-based
[9] = test system: HEK293; assay: Reversal of ABCG2 mediated mitoxantrone resistance in human HEK293 assessed as decrease in survival rate at 1.25 to 5 uM preincubated for 1 hrs followed by mitoxantrone addition and measured after 72 hrs by SRB assay; type: functional, cell-based; settings: dose 1.25-5 µM, time 73.0 hrs
[10] = test system: HEK293; assay: Reversal of ABCG2 mediated mitoxantrone resistance in human HEK293 overexpressing ABCG2 assessed as decrease in survival rate at 1.25 to 5 uM preincubated for 1 hrs followed by mitoxantrone addition and measured after 72 hrs by SRB assay; type: functional, cell-based; settings: dose 1.25-5 µM, time 73.0 hrs
[11] = test system: K562; assay: Reversal of ABCB1 mediated adriamycin resistance in human K562 assessed as decrease in survival rate at 1.25 to 5 uM preincubated for 1 hrs followed by adriamycin addition and measured after 72 hrs by MTS assay; type: functional, cell-based; settings: dose 1.25-5 µM, time 73.0 hrs
[12] = Cytotoxicity against human K562 cells assessed as decrease in cell survival rate incubated for 72 hrs by MTS assay; type: toxicity, cell-based
[13] = test system: K562/A02; assay: Reversal of ABCB1 mediated adriamycin resistance in human K562/A02 overexpressing ABCB1 assessed as decrease in survival rate at 1.25 to 5 uM preincubated for 1 hrs followed by adriamycin addition and measured after 72 hrs by MTS assay; type: functional, cell-based; settings: dose 1.25-5 µM, time 73.0 hrs
[14] = test system: K562/A02; assay: Reversal of ABCB1 mediated adriamycin resistance in human K562/A02 overexpressing ABCB1 assessed as decrease in survival rate at 5 uM preincubated for 1 hrs followed by adriamycin addition and measured after 72 hrs by MTS assay; type: functional
[15] = Cytotoxicity against human HEK293 cells expressing ABCG2 assessed as reduction in cell viability incubated for 72 hrs by SRB assay; type: toxicity, cell-based

Compound	Activity [1]	Activity [2]	Activity [3]	Activity ([4]; time 73.0 hrs)	Activity [5]	Activity ([6]; time 73.0 hrs)	IC50 at 72 h [7] [µM]	IC50 at 72 h [8] [µM]	Activity [9]	Activity [10]	Activity [11]	IC50 at 72 h [12] [µM]	Activity [13]	Activity [14] [%]	IC50 at 72 h [15] [µM]	Activity ([4]; time 73 hrs) [%]	Activity ([6]; time 73 hrs) [%]
COc1cc2c(cc1OC)CN(CC(=O)Nc1ccc(-c3nc4ccccn4c3CN3CCN(c4ccc(OC(F)(F)F)cc4)CC3)cc1)CC2	Non-Toxic	inactive	inactive	Active	Non-Toxic	Active	–	–	–	–	–	–	–	–	–	–	–
COc1cc2c(cc1OC)CN(CC(=O)Nc1ccc(-c3nc4ccccn4c3CN3CCCCC3)cc1)CC2	Non-Toxic	Active	Active	Active	Non-Toxic	Active	–	–	–	–	–	–	–	–	–	–	–
C=CCN(CC=C)CC(=O)Nc1ccc(-c2nc3ccccn3c2CN2CCc3cc(OC)c(OC)cc3C2)cc1	–	–	–	–	–	–	37.6	65.2	inactive	Active	inactive	45.3	Active	<30	11.5	–	–
COc1cc2c(cc1OC)CN(CC(=O)Nc1ccc(-c3nc4ccccn4c3CN3CCOCC3)cc1)CC2	Non-Toxic	Active	Active	Active	Non-Toxic	Active	–	–	–	–	–	–	–	–	–	–	–
COc1cc2c(cc1OC)CN(CC(=O)Nc1ccc(-c3nc4ccccn4c3CN3CCc4cc(OC)c(OC)cc4C3)cc1)CC2	Non-Toxic	inactive	inactive	–	Non-Toxic	–	–	> 100	–	–	inactive	> 100	Active	–	–	39	61
COc1cc2c(cc1OC)CN(CC(=O)Nc1ccc(-c3nc4ccccn4c3COCc3ccccc3Cl)cc1)CC2	Non-Toxic	inactive	inactive	Active	Non-Toxic	Active	–	–	–	–	–	–	–	–	–	–	–
COc1cc2c(cc1OC)CN(CC(=O)Nc1ccc(-c3nc4ccccn4c3CN(C)C)cc1)CC2	Non-Toxic	inactive	inactive	Active	Non-Toxic	Active	–	–	–	–	–	–	–	–	–	–	–
COc1cc2c(cc1OC)CN(CC(=O)Nc1ccc(-c3nc4ccccn4c3CN3CCC(=O)CC3)cc1)CC2	Non-Toxic	inactive	inactive	Active	Non-Toxic	Active	–	–	–	–	–	–	–	–	–	–	–
CC(=O)N1CCN(c2ccc(OCC3COC(Cn4ccnc4)(c4ccc(Cl)cc4Cl)O3)cc2)CC1 (stereo not drawn)	–	–	–	–	–	–	–	–	inactive	Active	–	–	–	–	–	–	–
COc1cc2c(cc1OC)CN(CC(=O)Nc1ccc(-c3nc4ccccn4c3CNCc3ccccc3)cc1)CC2	Non-Toxic	inactive	inactive	Active	59.82%	Active	–	–	–	–	–	–	–	–	–	–	–
CCN(CC)Cc1c(-c2ccc(NC(=O)CN3CCc4cc(OC)c(OC)cc4C3)cc2)nc2ccccn12	Non-Toxic	inactive	inactive	Active	Non-Toxic	Active	–	–	–	–	–	–	–	–	–	–	–
COc1cc2c(cc1OC)CN(CC(=O)Nc1ccc(-c3nc4ccccn4c3CN3CCCC3)cc1)CC2	Non-Toxic	inactive	inactive	Active	Non-Toxic	Active	–	–	–	–	–	–	–	–	–	–	–
COc1cc2c(cc1OC)CN(CC(=O)Nc1ccc(-c3nc4ccccn4c3CN3CCN(c4ccccc4)CC3)cc1)CC2	Non-Toxic	inactive	inactive	–	Non-Toxic	–	–	> 100	–	–	inactive	> 100	Active	–	–	33	59
COc1cc2c(cc1OC)CN(CC(=O)Nc1ccc(-c3nc4ccccn4c3CO)cc1)CC2	Non-Toxic	inactive	inactive	inactive	Non-Toxic	inactive	–	–	–	–	–	–	–	–	–	–	–
COc1ccc(/C=C/C(=O)Nc2ccc(-c3nc4ccccn4c3CN3CCN(c4ccccc4)CC3)cc2)cc1	–	–	–	–	–	–	21	> 100	inactive	Active	inactive	> 100	Active	<30	12.4	–	–
COc1cc2c(cc1OC)CN(Cc1c(-c3ccc(NC(=O)COc4ccc(Cl)cc4)cc3)nc3ccccn13)CC2	–	–	–	–	–	–	–	83	–	–	inactive	> 100	Active	–	–	–	–
O=C(/C=C/c1ccc(F)cc1)Nc1ccc(-c2nc3ccccn3c2CN2CCN(c3ccccc3)CC2)cc1	–	–	–	–	–	–	–	> 100	–	–	inactive	> 100	Active	–	–	–	–
COc1cc2c(cc1OC)CN(CC(=O)Nc1ccc(-c3cn4ccccc4n3)cc1)CC2	Non-Toxic	inactive	inactive	Active	Non-Toxic	Active	–	–	–	–	–	–	–	–	–	–	–
COc1cc(/C=C/C(=O)Nc2ccc(-c3nc4ccccn4c3CN3CCN(c4ccccc4)CC3)cc2)cc(OC)c1OC	–	–	–	–	–	–	–	> 100	–	–	inactive	> 100	Active	–	–	–	–
O=C1c2c(O)ccc(O)c2C(=O)c2c(NCCNCCO)ccc(NCCNCCO)c21 [MITOXANTRONE]	–	–	–	–	–	–	0.04	–	–	–	–	–	–	–	1.72	–	–
COc1cc2c(cc1OC)CN(CC(=O)Nc1ccc(-c3nc4ccccn4c3COCc3ccccc3)cc1)CC2	Non-Toxic	inactive	inactive	Active	Non-Toxic	Active	–	–	–	–	–	–	–	–	–	–	–
COc1cc2c(cc1OC)CN(CC(=O)Nc1ccc(-c3nc4ccccn4c3COCc3ccc(Cl)cc3)cc1)CC2	Non-Toxic	Active	Active	Active	Non-Toxic	Active	–	–	–	–	–	–	–	–	–	–	–
COc1ccc(COCc2c(-c3ccc(NC(=O)CN4CCc5cc(OC)c(OC)cc5C4)cc3)nc3ccccn23)cc1	Non-Toxic	inactive	inactive	Active	Non-Toxic	Active	–	–	–	–	–	–	–	–	–	–	–
